From patent publication US20260070945A1, “MACROCYCLIC IMMUNOMODULATORS” (Bristol-Myers Squibb Company, priority 2022, published 2026)
Where a SMILES comes first, the peptide text is derived from it. Bridges are numbered along the chain shown (N, C = ends). [ ]: non-standard residue; d: D form. The star is where a group is joined. ξ: configuration not given here. Phe(3-CF3) = N[C@@H](Cc1cccc(C(F)(F)F)c1)C(=O)O; Phe(4-CF3) = N[C@@H](Cc1ccc(C(F)(F)F)cc1)C(=O)O; Ala(morpholin-4-yl) = N[C@@H](CN1CCOCC1)C(=O)O; Phe(4-COOH) = N[C@@H](Cc1ccc(C(=O)O)cc1)C(=O)O; Bip = N[C@@H](Cc1ccc(-c2ccccc2)cc1)C(=O)O; Phe(3-Me) = Cc1cccc(C[C@H](N)C(=O)O)c1; NH(CH2)12COOH = O=C(O)CCCCCCCCCCCCN*; Val(3-OH) = CC(C)(O)[C@H](N)C(=O)O; Cha = N[C@@H](CC1CCCCC1)C(=O)O; Cit = NC(=O)NCCC[C@H](N)C(=O)O; Thr(3ξ) = CC(O)[C@H](N)C(=O)O; 12Ado = NCCCCCCCCCCCC(=O)O; hSer = N[C@@H](CCO)C(=O)O; Carboxymethyl = O=C(O)C*; NMeA = CN[C@@H](C)C(=O)O; Orn = NCCC[C@H](N)C(=O)O; Aun = NCCCCCCCCCCC(=O)O; Dab = NCC[C@H](N)C(=O)O; AEEA = NCCOCCOCC(=O)O; X12 = CC(C)(F)C(=O)*

molecular target: T1, PD-1/PD-L1 interaction (PE-labeled human PD-L1-Ig binding to Jurkat cell line over-expressing human PD-1) (Homo sapiens, UniProt Q15116); test: Jurkat-PD-1 Cell Binding High-Content Screening Assay (CBA); details: Jurkat-hPD-1 cells, PE-labeled PD-L1-Ig 20 nM final; read-out: Jurkat HPD1 PDL1 IC50
T1 construct: expressed in transfected cells; host or cells: Jurkat
T1 sequence (Q15116 25-288): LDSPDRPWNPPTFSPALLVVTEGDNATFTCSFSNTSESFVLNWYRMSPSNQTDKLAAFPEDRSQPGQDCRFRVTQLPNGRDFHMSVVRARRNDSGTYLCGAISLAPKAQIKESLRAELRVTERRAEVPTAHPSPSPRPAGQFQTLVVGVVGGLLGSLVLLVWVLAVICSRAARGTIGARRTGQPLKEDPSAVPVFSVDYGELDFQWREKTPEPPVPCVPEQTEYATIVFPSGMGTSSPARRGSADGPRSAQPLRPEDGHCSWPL
How it was run: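 Compound is added first to the PD-1-expressing Jurkat cells and held 2 h at 37 °C in serum-containing DMEM. The fluorescent PD-L1 fusion follows at 20 nM final for 1 h. Fixed, Hoechst-stained cells are then imaged for bound label.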

| SMILES | IC50 [nM] |
| --- | --- |
| Cc1cccc(C[C@@H]2NC(=O)[C@H](CC(=O)O)NC(=O)[C@H](Cc3ccc(OCC(=O)O)cc3)NC(=O)[C@H](C(C)O)NC(=O)CSC[C@@H](C(=O)N[C@@H](CCN)C(=O)NCCCCCCCCCCC(=O)O)NC(=O)[C@H](C(C)O)NC(=O)[C@H](C(C)C)NC(=O)[C@H](CC3CCCCC3)NC(=O)[C@H](CCN)NC(=O)[C@@H](CC(C)C)NC(=O)[C@H](C)N(C)C(=O)[C@H](Cc3ccc(OCC(=O)O)cc3)NC(=O)[C@H](Cc3ccc(-c4ccccc4)cc3)NC(=O)[C@H](Cc3ccc(C(=O)O)cc3)NC2=O)c1 (stereo partly drawn) [Example 2353] ({CH2CO}-[Thr(3ξ)]Y(Carboxymethyl)D[Phe(3-Me)][Phe(4-COOH)][Bip]Y(Carboxymethyl)[NMeA][dL][Dab][Cha]V[Thr(3ξ)]C[Dab][Aun]-OH; thioether N-14) | 21.5 |
| Cc1cccc(C[C@@H]2NC(=O)[C@H](CC(=O)O)NC(=O)[C@H](Cc3ccc(OCC(=O)O)cc3)NC(=O)[C@H](CCCNC(=N)N)NC(=O)CSC[C@@H](C(=O)N[C@@H](CCCCN)C(=O)NCCCCCCCCCCC(=O)O)NC(=O)[C@H]([C@@H](C)O)NC(=O)[C@H](C(C)C)NC(=O)[C@H](CC3CCCCC3)NC(=O)[C@H](CCN)NC(=O)[C@@H](CC(C)C)NC(=O)[C@H](C)N(C)C(=O)[C@H](Cc3ccc(OCC(=O)O)cc3)NC(=O)[C@H](Cc3ccc(-c4ccccc4)cc3)NC(=O)[C@H](Cc3ccc(C(=O)O)cc3)NC2=O)c1 [Example 1225] ({CH2CO}-RY(Carboxymethyl)D[Phe(3-Me)][Phe(4-COOH)][Bip]Y(Carboxymethyl)[NMeA][dL][Dab][Cha]VTCK[Aun]-OH; thioether N-14) | 48.7 |
| Cc1cccc(C[C@@H]2NC(=O)[C@H](CC(=O)O)NC(=O)[C@H](Cc3ccc(OCC(=O)O)cc3)NC(=O)[C@H](CCCNC(=O)C(C)(C)F)NC(=O)CSC[C@@H](C(=O)N[C@@H](CCCN)C(=O)N[C@@H](CO)C(=O)NCCCCCCCCCCCC(=O)O)NC(=O)[C@H](C(C)O)NC(=O)[C@H](C(C)C)NC(=O)[C@H](CC3CCCCC3)NC(=O)[C@H](CCN)NC(=O)[C@@H](CC(C)C)NC(=O)[C@H](C)N(C)C(=O)[C@H](CCCNC(N)=O)NC(=O)[C@H](Cc3ccc(-c4ccccc4)cc3)NC(=O)[C@H](Cc3ccc(O)cc3)NC2=O)c1 (stereo partly drawn) [Example 2401] ({CH2CO}-[Orn](X12)Y(Carboxymethyl)D[Phe(3-Me)]Y[Bip][Cit][NMeA][dL][Dab][Cha]V[Thr(3ξ)]C[Orn]S[12Ado]-OH; thioether N-14) | 94.4 |
| Cc1cccc(C[C@@H]2NC(=O)[C@H](CC(=O)O)NC(=O)[C@H](Cc3ccc(OCC(=O)O)cc3)NC(=O)[C@H](CCCNC(=N)N)NC(=O)CSC[C@@H](C(=O)N[C@@H](CCN)C(=O)NCCCCCCCCCCC(=O)O)NC(=O)[C@H](C(C)O)NC(=O)[C@H](C(C)C)NC(=O)[C@H](CC3CCCCC3)NC(=O)[C@H](CCN)NC(=O)[C@@H](CC(C)C)NC(=O)[C@H](C)N(C)C(=O)[C@H](Cc3ccc(OCC(=O)O)cc3)NC(=O)[C@H](Cc3ccc(-c4ccccc4)cc3)NC(=O)[C@H](CCCNC(N)=O)NC2=O)c1 (stereo partly drawn) [Example 2349] ({CH2CO}-RY(Carboxymethyl)D[Phe(3-Me)][Cit][Bip]Y(Carboxymethyl)[NMeA][dL][Dab][Cha]V[Thr(3ξ)]C[Dab][Aun]-OH; thioether N-14) | 32.5 |

Continued, values first:

| IC50 [nM] | SMILES |
| --- | --- |
| 16 | CC(C)C[C@H]1NC(=O)[C@H](C)N(C)C(=O)[C@H](CCC(N)=O)NC(=O)[C@H](Cc2ccc(-c3ccccc3)cc2)NC(=O)[C@H](Cc2ccc(C(=O)O)cc2)NC(=O)[C@H](Cc2cccc(C(F)(F)F)c2)NC(=O)[C@H](CC(=O)O)NC(=O)[C@H](Cc2ccc(OCC(=O)O)cc2)NC(=O)[C@H](CN2CCOCC2)NC(=O)CSC[C@@H](C(=O)N[C@@H](CCN)C(=O)NCCCCCCCCCCCCC(=O)O)NC(=O)[C@H](CC(=O)O)NC(=O)[C@H](C(C)(C)O)NC(=O)[C@H](CC2CCCCC2)NC(=O)[C@H](CCN)NC1=O [Example 1150] ({CH2CO}-[Ala(morpholin-4-yl)]Y(Carboxymethyl)D[Phe(3-CF3)][Phe(4-COOH)][Bip]Q[NMeA][dL][Dab][Cha][Val(3-OH)]DC[Dab]-{NH(CH2)12COOH}; thioether N-14) |
| 17.4 | Cc1cccc(C[C@@H]2NC(=O)[C@H](CC(=O)O)NC(=O)[C@H](Cc3ccc(OCC(=O)O)cc3)NC(=O)[C@H]([C@@H](C)O)NC(=O)CSC[C@@H](C(=O)N[C@@H](CCCN)C(=O)NCCOCCOCC(=O)NCCCCCCCCCCC(=O)O)NC(=O)[C@H](CC(N)=O)NC(=O)[C@H](C(C)C)NC(=O)[C@H](CC3CCCCC3)NC(=O)[C@H](CCN)NC(=O)[C@@H](CC(C)C)NC(=O)[C@H](C)N(C)C(=O)[C@H](Cc3ccc(OCC(=O)O)cc3)NC(=O)[C@H](Cc3ccc(-c4ccccc4)cc3)NC(=O)[C@H](Cc3ccc(OCC(=O)O)cc3)NC2=O)c1 [Example 1374] ({CH2CO}-TY(Carboxymethyl)D[Phe(3-Me)]Y(Carboxymethyl)[Bip]Y(Carboxymethyl)[NMeA][dL][Dab][Cha]VNC[Orn][AEEA][Aun]-OH; thioether N-14) |
| 16.1 | Cc1cccc(C[C@@H]2NC(=O)[C@H](CC(=O)O)NC(=O)[C@H](Cc3ccc(OCC(=O)O)cc3)NC(=O)[C@H](CCCNC(=N)N)NC(=O)CSC[C@@H](C(=O)N[C@@H](CCN)C(=O)NCCCCCCCCCCC(=O)O)NC(=O)[C@H](CCCCN)NC(=O)[C@H](C(C)C)NC(=O)[C@H](CC3CCCCC3)NC(=O)[C@H](CCN)NC(=O)[C@@H](CC(C)C)NC(=O)[C@H](C)N(C)C(=O)[C@H](CCCNC(N)=O)NC(=O)[C@H](Cc3ccc(-c4ccccc4)cc3)NC(=O)[C@H](C(C)C)NC2=O)c1 [Example 2212] ({CH2CO}-RY(Carboxymethyl)D[Phe(3-Me)]V[Bip][Cit][NMeA][dL][Dab][Cha]VKC[Dab][Aun]-OH; thioether N-14) |
| 17.8 | CC(C)C[C@H]1NC(=O)[C@H](C)N(C)C(=O)[C@H](CCCNC(N)=O)NC(=O)[C@H](Cc2ccc(-c3ccccc3)cc2)NC(=O)[C@H](Cc2ccc(C(=O)O)cc2)NC(=O)[C@H](Cc2cccc(C(F)(F)F)c2)NC(=O)[C@H](CC(=O)O)NC(=O)[C@H](Cc2ccc(OCC(=O)O)cc2)NC(=O)[C@H](Cc2ccc(C(=O)O)cc2)NC(=O)CSC[C@@H](C(=O)N[C@@H](CCN)C(=O)NCCCCCCCCCCCCC(=O)O)NC(=O)[C@H](CO)NC(=O)[C@H](C(C)(C)O)NC(=O)[C@H](CC2CCCCC2)NC(=O)[C@H](CCN)NC1=O [Example 1148] ({CH2CO}-[Phe(4-COOH)]Y(Carboxymethyl)D[Phe(3-CF3)][Phe(4-COOH)][Bip][Cit][NMeA][dL][Dab][Cha][Val(3-OH)]SC[Dab]-{NH(CH2)12COOH}; thioether N-14) |
| 6.6 | CC(C)C[C@@H]1NC(=O)[C@H](Cc2c[nH]c3ccccc23)NC(=O)[C@H](CC(=O)O)NC(=O)[C@H](Cc2ccc(C(=O)O)cc2)NC(=O)[C@H](Cc2ccc(OCC(=O)O)cc2)NC(=O)CSC[C@@H](C(=O)NCCOCCOCC(=O)N[C@@H](CCN)C(=O)NCCCCCCCCCCC(=O)O)NC(=O)[C@H](CCCCN)NC(=O)[C@H](C(C)C)NC(=O)[C@H](CC2CCCCC2)NC(=O)[C@H](CCN)NC(=O)[C@@H](CC(C)C)NC(=O)[C@H](C)N(C)C(=O)[C@H](C(C)C)NC(=O)[C@H](Cc2ccc(-c3ccccc3)cc2)NC1=O [Example 2155] ({CH2CO}-Y(Carboxymethyl)[Phe(4-COOH)]DWL[Bip]V[NMeA][dL][Dab][Cha]VKC[AEEA][Dab][Aun]-OH; thioether N-14) |
| 21.3 | Cc1cccc(C[C@@H]2NC(=O)[C@H](CC(=O)O)NC(=O)[C@H](Cc3ccc(OCC(=O)O)cc3)NC(=O)[C@H](C(C)O)NC(=O)CSC[C@@H](C(=O)N[C@@H](CCN)C(=O)NCCCCCCCCCCC(=O)O)NC(=O)[C@H](C(C)O)NC(=O)[C@H](C(C)C)NC(=O)[C@H](CC3CCCCC3)NC(=O)[C@H](CCN)NC(=O)[C@@H](CC(C)C)NC(=O)[C@H](C)N(C)C(=O)[C@H](Cc3ccc(C(=O)O)cc3)NC(=O)[C@H](Cc3ccc(-c4ccccc4)cc3)NC(=O)[C@H](Cc3ccc(C(=O)O)cc3)NC2=O)c1 (stereo partly drawn) [Example 2311] ({CH2CO}-[Thr(3ξ)]Y(Carboxymethyl)D[Phe(3-Me)][Phe(4-COOH)][Bip][Phe(4-COOH)][NMeA][dL][Dab][Cha]V[Thr(3ξ)]C[Dab][Aun]-OH; thioether N-14) |
| 15.6 | CC(C)C[C@H]1NC(=O)[C@H](C)N(C)C(=O)[C@H](CCCNC(N)=O)NC(=O)[C@H](Cc2ccc(-c3ccccc3)cc2)NC(=O)[C@H](C(C)C)NC(=O)[C@H](Cc2c[nH]c3ccccc23)NC(=O)[C@H](CC(=O)O)NC(=O)[C@H](Cc2ccc(OCC(=O)O)cc2)NC(=O)[C@H](Cc2ccc(OCC(=O)O)cc2)NC(=O)CSC[C@@H](C(=O)NCCOCCOCC(=O)NCCCCCCCCCCC(=O)O)NC(=O)[C@H](CCO)NC(=O)[C@H](C(C)C)NC(=O)[C@H](CC2CCCCC2)NC(=O)[C@H](CCN)NC1=O [Example 2319] ({CH2CO}-Y(Carboxymethyl)Y(Carboxymethyl)DWV[Bip][Cit][NMeA][dL][Dab][Cha]V[hSer]C[AEEA][Aun]-OH; thioether N-14) |

same assay, conditions: PE-labeled PD-L1-Ig 20 nM final, Jurkat-hPD-1 cells; read-out: Jurkat HPD1 PDL1 IC50

| IC50 [nM] | SMILES |
| --- | --- |
| 9 | CC(=O)NCCCC[C@@H]1NC(=O)[C@H](C(C)(C)O)NC(=O)[C@H](CC2CCCCC2)NC(=O)[C@H](CCN)NC(=O)[C@@H](CC(C)C)NC(=O)[C@H](C)N(C)C(=O)[C@H](CCC(N)=O)NC(=O)[C@H](Cc2ccc(-c3ccccc3)cc2)NC(=O)[C@H](Cc2ccc(C(F)(F)F)cc2)NC(=O)[C@H](Cc2cccc(C)c2)NC(=O)[C@H](CC(=O)O)NC(=O)[C@H](Cc2ccc(OCC(=O)O)cc2)NC(=O)[C@H](Cc2ccc(OCC(=O)O)cc2)NC(=O)CSC[C@@H](C(=O)N[C@@H](CCN)C(=O)NCCOCCOCC(=O)NCCCCCCCCCCC(=O)O)NC1=O [Example 2593] ({CH2CO}-Y(Carboxymethyl)Y(Carboxymethyl)D[Phe(3-Me)][Phe(4-CF3)][Bip]Q[NMeA][dL][Dab][Cha][Val(3-OH)]K(Ac)C[Dab][AEEA][Aun]-OH; thioether N-14) |
